The text below walks through data of PMC13267113 (npj Drug Discovery, 2025).

In one data set the test system is U-2 OS cells. The data set can be described thus: Mitochondrial superoxide formation (MitoSOX Red). Type of data set: cell-based, human. The settings on record: n = 6. The protocol: CYS was tested for its potential to induce oxidative stress in U-2 OS cells. Therefore, 120 µL of a cell suspension in McCoy’s (+10% FBS) containing 5 × 10^4 cells/mL were seeded into black 96-well imaging plate (BD Falcon). The plates were incubated for two days (37 °C, 5% CO2) until the cells reached approximately 70% confluence. Subsequently, the cells were washed with HBSS buffer, prior to adding CYS (20 µM) and the ROS inducer menadione (50 µM) as positive control, along with the staining solution (HBSS, calcium, magnesium, 5 µM MitoSOX red and 10 µg/mL Hoechst (Thermo)). To check for ROS protective properties, menadione (50 µM) was added directly to the staining solution. […] Afterwards, the cells were washed twice with HBSS. The cells were imaged using an automated fluorescence microscope (Celldiscoverer 7, Zeiss) (excitation: […]) to analyze the fluorescence intensity of the superoxide tracker MitoSOX red. The experiment was carried out with six replicates per condition. Quantification was done by high-content image analysis using the ZEN software (version 3.4, blue edition, Zeiss). Data presentation was done using GraphPad Prism (version 10.0.3) with ordinary one-way ANOVA including multiple comparisons to the control group for statistical analysis of the sample without ROS induction via menadione in the staining solution. Multiple unpaired t test was used to compare samples for ROS protective properties, which were incubated with menadione in the staining solution.

For the next data set, the system named is HEK293 (human, kidney). Briefly: MTT cytotoxicity HEK293. Type of data set: cell-based. The settings on record: HEK293, MTT, 72 h, n = 3, read-out: IC50 HEK293 (human, kidney). The protocol:
(§1) All cell types were cultivated at 37 °C with 5% CO2. HepG2, HEK293, HCT116, CHO-K1, HeLa-CCL-2 and Huh-7.5 were purchased from ATCC. The respective cell media (Gibco) were supplemented with 10% FBS (Gibco) before usage. Cells were used between passages #5 and #30. To obtain biological repeats, cells were split separately for at least two passages.
(§2) Cells were washed with PBS and 0.5 mL trypsin was added. Afterwards, cells were incubated for 5 min before adding 10 mL medium containing 10% FBS. Per well, 120 µL cell suspension (5 × 10^4 cells/mL) was seeded in transparent 96-well cell bind plates and incubated for 2 h (37 °C, 5% CO2). A dilution series (1:3) of test compounds was prepared in respective media containing 10% FBS and added (60 µL) to the prepared cell plate. Cells were incubated for a further 72 h (37 °C, 5% CO2). Next, 20 µL MTT (5 mg/mL in PBS) was added to each well and incubated for 2 h (37 °C, 5% CO2). The wells were emptied and 100 µL isopropanol/10 N HCl (1000:4) per well was added.
(§3) The plates were analyzed by measuring the absorbance at 570 nm (plate reader Infinite® 200 Pro, Tecan). After normalization of data to the respective solvent controls, the calculated percentage of growth inhibition was plotted using GraphPad Prism software (version 10.0.2).

Data set [1] deals with T1, human DNA topoisomerase IIα (TOP2A) (Homo sapiens, UniProt P11388).
T1 construct: purchased Inspiralis
T1 sequence (P11388 whole entry): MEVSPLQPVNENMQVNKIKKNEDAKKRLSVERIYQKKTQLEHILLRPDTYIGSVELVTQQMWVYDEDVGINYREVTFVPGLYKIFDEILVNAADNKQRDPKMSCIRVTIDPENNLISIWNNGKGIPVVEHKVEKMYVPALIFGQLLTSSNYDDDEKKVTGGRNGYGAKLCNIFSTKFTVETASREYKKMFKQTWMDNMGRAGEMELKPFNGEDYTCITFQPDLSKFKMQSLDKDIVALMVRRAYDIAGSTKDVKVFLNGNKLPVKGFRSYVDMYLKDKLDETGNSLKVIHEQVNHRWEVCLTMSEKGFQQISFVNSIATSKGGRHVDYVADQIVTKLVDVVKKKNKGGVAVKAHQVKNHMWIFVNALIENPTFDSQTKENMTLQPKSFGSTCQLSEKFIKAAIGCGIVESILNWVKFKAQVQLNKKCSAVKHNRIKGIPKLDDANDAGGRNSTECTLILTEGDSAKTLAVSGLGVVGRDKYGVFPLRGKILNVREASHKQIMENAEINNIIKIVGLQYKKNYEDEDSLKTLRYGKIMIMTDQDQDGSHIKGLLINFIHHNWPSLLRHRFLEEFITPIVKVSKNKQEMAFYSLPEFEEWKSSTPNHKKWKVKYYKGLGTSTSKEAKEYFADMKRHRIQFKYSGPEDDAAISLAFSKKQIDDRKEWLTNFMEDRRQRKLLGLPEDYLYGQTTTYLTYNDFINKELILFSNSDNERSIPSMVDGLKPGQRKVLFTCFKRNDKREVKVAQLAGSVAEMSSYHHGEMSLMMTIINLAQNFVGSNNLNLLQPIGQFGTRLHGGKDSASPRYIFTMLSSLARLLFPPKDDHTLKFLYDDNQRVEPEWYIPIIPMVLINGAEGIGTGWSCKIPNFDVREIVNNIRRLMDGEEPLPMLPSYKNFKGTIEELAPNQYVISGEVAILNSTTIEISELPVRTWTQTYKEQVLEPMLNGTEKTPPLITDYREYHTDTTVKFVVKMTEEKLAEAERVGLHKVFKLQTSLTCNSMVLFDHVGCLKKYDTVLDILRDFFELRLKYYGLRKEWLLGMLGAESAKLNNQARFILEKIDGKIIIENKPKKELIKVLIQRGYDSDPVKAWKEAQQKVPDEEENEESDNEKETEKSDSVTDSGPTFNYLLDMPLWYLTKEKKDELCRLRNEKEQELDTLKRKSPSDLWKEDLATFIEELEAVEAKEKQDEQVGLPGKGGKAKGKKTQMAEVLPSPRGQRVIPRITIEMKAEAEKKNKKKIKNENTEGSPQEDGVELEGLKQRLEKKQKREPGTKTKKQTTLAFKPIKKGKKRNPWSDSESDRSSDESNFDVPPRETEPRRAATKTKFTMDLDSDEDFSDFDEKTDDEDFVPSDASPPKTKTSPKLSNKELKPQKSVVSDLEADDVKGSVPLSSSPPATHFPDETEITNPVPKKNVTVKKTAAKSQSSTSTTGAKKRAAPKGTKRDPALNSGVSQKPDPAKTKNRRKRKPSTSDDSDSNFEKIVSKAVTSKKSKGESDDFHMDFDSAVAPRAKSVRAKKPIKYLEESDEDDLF
The data set can be described thus: human topoisomerase II alpha decatenation assay. Type of data set: biochemical. The settings on record: n = 3, read-out: IC50 against TOP2A.
Description: Inhibition of topoisomerase activity was examined using the human topoisomerase II alpha decatenation assay kit (Inspiralis) as indicated by the manufacturer. Briefly, a compound dilution series was prepared in DMSO. Water, dilution buffer, assay buffer, plasmid and enzyme were mixed with the compound solution and incubated at 37 °C for 30 min. A positive control (100% activity) was prepared without the compound, and a negative control (0% activity) was prepared without the compound and the enzyme. The reaction was stopped by adding gSTEB-buffer and chloroform/isoamylalcohol (24:1 v/v). The samples were vortexed and centrifuged before running gel electrophoresis. The gel was stained with ethidium bromide and imaged using a Fusion Fx gel imager (Vilber Lourmat). Subsequent analysis was done using ImageJ and GraphPad Prism (Version 10.0.2).

Data set [2] is described as follows: Metabolic stability in mouse hepatocytes. Type of data set: in vitro ADME. The procedure: For the evaluation of combined phase I and phase II metabolic stability, the compound (1 μM) was incubated with 0.25 × 10^6 cells/mL of pooled mouse hepatocytes (Xenotech, Kansas City, USA). Cells were thawed in Leibovitz’s L-15 medium without phenol red (ThermoFisher Scientific, Waltham, USA). Briefly, cells were transferred into 50 mL of medium, followed by centrifugation at 55 g for 6 min. Supernatant was discarded, and the cell count was determined after gently resuspending the cell pellet in 1mL of medium. Hepatocytes were diluted to 0.5 × 10^6 cells/mL and incubated at 37 °C, 700 rpm for 10 min, to achieve the desired final cell count after addition of an equal volume of test compounds in medium, leading to a final test concentration of 1 µM at 1% DMSO. […] For the determination of metabolism in the presence of cobicistat, this drug was added together with test compounds in the desired concentration range. The metabolic stability of testosterone, verapamil, ketoconazole and 7-hydroxycoumarine were determined in parallel to confirm the enzymatic activity of mouse hepatocytes. […] Concentration of the remaining test compound at the different time points was analyzed by HPLC-MS/MS (Vanquish Flex coupled to a TSQ Altis Plus, Thermo Fisher, Dreieich, Germany) and used to determine half-life (t1/2). Intrinsic clearance was calculated as follows:2 CLintµL/min×10^6cells=Incubation volumeµL×ln(2)/Cells in incubation mixture[10^6]×t1/2
For metabolite identification studies, test compounds were incubated at 10 µM final concentration and samples were analyzed using HPLC-HRMS (Ultimate 3000 coupled to a Q Exactive Focus, Thermo Fisher, Dreieich, Germany). […] Blank samples using DMSO were run in parallel for background subtraction. Sample processing for metabolite identification was performed using Compound Discoverer 3.2 (Thermo Fisher, Dreieich, Germany). Metabolites were identified based on mass shifts and feasibility of the metabolic reaction, also in view of MS peak intensities over time.

The test system of the next data set is HCT116 (human, colon). Briefly: MTT cytotoxicity HCT116. Type of data set: cell-based. The settings on record: HCT-116, 72 h, n = 3. The procedure:
as §1, §2, §3

For data set [3], the system named is U2OS (human, osteosarcoma). The data set can be described thus: MTT cytotoxicity U2OS. The format is cell-based. The settings on record: 72 h, n = 3. The procedure:
as §2, §3

The nature of data set [4]: Mouse plasma protein binding. The settings on record: read-out: Mouse PPB (converted). Type of data set: in vitro ADME.
The next data set in a line: Mouse plasma stability. The settings on record: read-out: Mouse plasma t1/2. Type of data set: in vitro ADME.
The subject of another data set is HeLa (human, cervix). The data set can be described thus: MTT cytotoxicity HeLa. The format is cell-based. The settings on record: 72 h, n = 3. The procedure: as §1, §2, §3
The next data set deals with HepG2 (human, liver). Briefly: MTT cytotoxicity HepG2. Type of data set: cell-based. The settings on record: 72 h, n = 3. The procedure: as §1, §2, §3
A short description of data set [5]: Metabolic stability in mouse liver microsomes. The settings on record: pooled mouse liver microsomes, 0.5 mg/mL microsomes, NADPH. Type of data set: in vitro ADME. The procedure:
The metabolic stability of testosterone, verapamil and ketoconazole was determined in parallel to confirm the enzymatic activity of mouse liver microsomes. For combination experiments, cobicistat was added to the incubation mixture together with test compounds. […] Concentration of the remaining test compound at the different time points was analyzed by HPLC-MS/MS (Vanquish Flex coupled to a TSQ Altis Plus, Thermo Fisher, Dreieich, Germany) and used to determine half-life (t1/2).

The next data set is described as follows: physchem. The settings on record: zebrafish embryo incubation medium, aqueous buffer, kinetic from dmso stock.
The subject of data set [6] is HCV pseudoparticle (HCVpp; JFH1 genotype 2a, Con1 genotype 1b) entry into Huh-7.5. Briefly: HCVpp cell entry assay. The settings on record: Hepatitis C virus, GETYPE1B|GETYPE2A, Huh7.5, 72 h, read-out: concentration of 50% entry inhibition.
On the set-up of data set [7]: method as in PMID 26437376, PMID 24041792. The settings on record: cited from earlier work.
The test system of the next data set is SCARB1. Further details: method as in PMID 19815817. The settings on record: previous in vivo mouse studies; cited from earlier work.

Each structure is given as a SMILES string. Converted amounts (≈) assume the structure as drawn.

By hepatocyte CLint is commonly meant the capacity of the preparation to metabolise the compound, expressed as a volume cleared per time. A high value points to rapid turnover. As a reminder, the solubility is the concentration that dissolves in the medium under given conditions. A higher solubility goes with a readily soluble substance. Turning to `C=CC1CC1(NC(=O)C12CC(NC(=O)c3ccc(C#N)cc3)(C1)C2)C(=O)Nc1ccc(C(=O)Nc2ccc(C(=O)Nc3ccc(C(=O)O)cc3)c(O)c2OC(C)C)cc1` (stereo not shown) [Cysto-180], the “basal superoxide radical levels vs DMSO control” value with U-2 OS cells (20 µM, MitoSOX Red, no menadione) is “decrease of superoxide radical levels”. Moreover, the “menadione-induced superoxide formation on co-treatment” value in the data set on U-2 OS cells (CYS 20 µM + menadione 50 µM) is recorded as “no significant increase of superoxide”. Besides, the IC50 in the data set with HEK293 (human, kidney) was above 20 µM; in data set [1], 12.2 ± 0.63 µM; with HCT116 (human, colon), above 20 µM; in data set [3], above 20 µM; with HeLa (human, cervix), above 37 µM; in the data set with HepG2 (human, liver) it was above 20 µM. Also, in data set [6], the IC50 is around 3.3 µM. Also, the major metabolic pathways result in data set [2] (metabolite identification, 10 µM, mouse hepatocytes) was “amide bond hydrolysis and glucuronidation”. Further, the hepatocyte CLint at 1 µM in [2] (mouse, pooled mouse hepatocytes, 1 μM, 0.25 × 10^6 cells/mL) was 26 µL/min/1e6 cells. For the same compound, the half-life at 1 µM in [2] (mouse, pooled mouse hepatocytes, 1 μM, 0.25 × 10^6 cells/mL, read-out: Mouse Hepatocytes t1/2) was 0.683 ± 0.267 h; in [5] (read-out: MLM t1/2), above 2 h. The fraction unbound in data set [4] was 0.041. Further, the half-life in the data set “Mouse plasma stability” is above 4 h. In data set [5] (read-out: MLM Clint), the microsomal CLint at 1 μM is below 11.6 µL/min/mg. In the data set “physchem”, the concentration in solution (solubility) came to 200 µM (≈ 159 µg/mL).
As to `COc1c(NC(=O)C(=O)c2ccc(OCCN3CCOCC3)c3ccccc23)cc(C(C)(C)C)cc1NS(C)(=O)=O` [ITX5061], in [7], the safety in humans entry is listed as “safety in humans has been demonstrated”. Moreover, the “effect of SCARB1 suppression in mice” value in the data set with SCARB1 is “increased beneficial HDL cholesterol levels and partially reduced atherosclerotic lesions”.
